The record followed here is patent US7687470B2, “Avermectin and avermectin monosaccharide substituted in the 4″- and 4″ position respectively” (Syngenta Crop Protection, Inc., priority 2005, dated 2010).

SMILES strings stand for the structures.

The test has as its system Diabrotica balteata. The test is described as follows: Activity against Diabrotica balteata (sprayed maize seedlings). The test is classed as in vivo. Particulars: 12.5 ppm, spray on maize seedlings, second-stage larvae, after 6 days; b227: good activity corresponding to a mortality of at least 50 to 60%. The protocol: Maize seedlings are sprayed with an aqueous emulsion spray liquor which comprises 12.5 ppm of active compound and, after the spray coating has dried on, populated with 10 larvae of the second stage of Diabrotica balteata and then introduced into a plastic container. After 6 days, the reduction in the population in percent (% activity) is determined by comparing the dead larvae between the treated and the untreated plants.

On to `CCC(C)C1OC2(C=CC1C)CC1CC(CC=C(C)C(OC3CC(OC)C(OC4CC(OC)C(C)(NC=O)C(C)O4)C(C)O3)C(C)C=CC=C3COC4C(O)C(C)=CC(C(=O)O1)C34O)O2` (stereo not shown) [Table A8], for which the “activity in this test (in words)” value was “good activity”.
